≈ marks a conversion by molar mass, not a printed value. Where “and” joins values, the source holds several entries; their conditions need not be identical. Equal values may be shown once.
Tests used:
MSSA ATCC 29213 = test: Broth microdilution MIC, MSSA ATCC 29213; assay type: cell-based, S. aureus; details: Staphylococcus aureus
Method: (§1) The data is given in supporting information (Table S5). Before starting the experiment, a single colony was picked from MHA plate, inoculated in MHBII and incubated overnight at 37 °C with shaking for 18–24 h to get the starter culture. Antibiotic susceptibility testing was conducted according to the CLSI (Clinical & Laboratory Standards Institute) guidelines using the broth microdilution assay. 10 mg/mL stock solutions of test compounds were prepared in DMSO. Bacterial cultures were inoculated in MHBII and optical density (OD) was measured at 600 nm, followed by dilution to achieve ~10^6 CFU/mL. The compounds were tested from 64 to 0.5 mg/L in two-fold serial diluted fashion with 2.5 μL of each concentration added to well of a 96-well round bottom microtiter plate. Later, 97.5 μL of bacterial suspension was added to each well containing either test compound or appropriate controls. […] The MIC is defined as the lowest concentration of the compound at which there is absence of visible growth. For each test compound, MIC determinations were carried out independently three times using duplicate samples.

MRSA NRS 191 = test: Broth microdilution MIC, MRSA NRS 191; assay type: cell-based, S. aureus; details: Staphylococcus aureus
Method: as §1

MRSA NRS 193 = test: Broth microdilution MIC, MRSA NRS 193; assay type: cell-based, S. aureus; details: Staphylococcus aureus
Method: as §1

MRSA NRS 194 = test: Broth microdilution MIC, MRSA NRS 194; assay type: cell-based, S. aureus; details: Staphylococcus aureus
Method: as §1

[1] = test system: 36th Passage S.aureus ATCC 29213 in the presence of Pt-1; test: microbe, parasite or virus in culture; assay type: cell-based; details: Staphylococcus aureus, ATCC29213
Method: The MICs of the passaged cultures were determined every 3 days and compared to that of wild type S. aureus ATCC 29213. MIC changes were recorded for 36 passages.

MRSA NRS 198 = test: Broth microdilution MIC, MRSA NRS 198; assay type: cell-based, S. aureus; details: Staphylococcus aureus
Method: as §1

MRSA NRS 192 = test: Broth microdilution MIC, MRSA NRS 192; assay type: cell-based, S. aureus; details: Staphylococcus aureus
Method: as §1

[2] = test system: methicillin-resistant S. aureus (MRSA) COL; test: MIC assay, MRSA COL; assay type: cell-based, Staphylococcus aureus; details: Staphylococcus aureus, MRSA
VRSA VRS 4 = test: Broth microdilution MIC, VRSA VRS 4; assay type: cell-based, S. aureus; details: Staphylococcus aureus, VRSA
Method: as §1

S. aureus ATCC 29213 [3] = test: Post antibiotic effect (PAE); assay type: cell-based; details: for Time for 1 log10 increase in bacterial cfu count: 1 h exposure
Method: Post antibiotic effect (PAE) was determined as follows. […] Following incubation, cultures were centrifuged and washed twice with pre-warmed MHBII to remove any traces of antibiotics. Finally, cells were resuspended in drug-free MHBII and incubated further at 37 °C. Samples were taken every 1 h, serially diluted, and plated on tryptic soy agar (TSA) for enumeration of CFU. […] CFU observed immediately after the removal of the drug, and C in a similarly treated drug-free control.

MRSA NRS 100 = test: Broth microdilution MIC, MRSA NRS 100; assay type: cell-based, S. aureus; details: Staphylococcus aureus
Method: as §1

MRSA NRS 119 = test: Broth microdilution MIC, MRSA NRS 119; assay type: cell-based, S. aureus; details: Staphylococcus aureus
Method: as §1

[4] = test system: methicillin-sensitive Staphylococcus aureus (MSSA), clinical isolate; test: MIC assay, MSSA clinical isolate; assay type: cell-based; details: Staphylococcus aureus, MSSA
Bacillus subtilis MW168 = test: MIC assay, B. subtilis MW168; assay type: cell-based; details: Bacillus subtilis, MW168
VRSA VRS 1 = test: Broth microdilution MIC, VRSA VRS 1; assay type: cell-based, S. aureus; details: Staphylococcus aureus, VRSA
Method: as §1

S. aureus ATCC 29213 [5] = test: Drug interaction study (chequerboard assay); assay type: cell-based
Method: All compounds were freshly prepared for the experiment. […] Following incubation, the fractional inhibitory concentration index (FICI) was calculated with the formula FICI = […], whereby FICA = MIC of drug A in combination/MIC of drug A alone and FICB = MIC of drug B in combination/MIC of drug B alone. A drug combination is considered synergistic when ∑FICI is ≤0.5, indifferent when ∑FICI is >0.5 to 4, and antagonistic when ∑FICI is >4.

MRSA NRS 129 = test: Broth microdilution MIC, MRSA NRS 129; assay type: cell-based, S. aureus; details: Staphylococcus aureus
Method: as §1

VRSA VRS 12 = test: Broth microdilution MIC, VRSA VRS 12; assay type: cell-based, S. aureus; details: Staphylococcus aureus, VRSA
Method: as §1

MRSA NRS 186 = test: Broth microdilution MIC, MRSA NRS 186; assay type: cell-based, S. aureus; details: Staphylococcus aureus
Method: as §1

S. aureus ATCC 29213 [6] = test: Murine superficial skin infection model; assay type: in vivo; details: topical 2% cream, twice daily for 4 days, Swiss mice
Method: The in vivo efficacy of Pt1 was determined in a superficial skin infection model. Briefly, male Swiss mice, 4–6 weeks old, weighing ∼22–25 g, were used throughout the study. Mice were caged alone in an individually vented cage (IVC) to check cross-contamination and to maintain aseptic conditions throughout the experiment. Ketamine and xylazine were prepared in distilled water, 40 mg/kg and 8 mg/kg of body weight, respectively, and injected intraperitoneally (IP) as a mixture of 100 μL in each mouse for anaesthesia. Then, we proceeded with the removal of fur by applying depilatory cream. The area was cleaned with sterile distilled water. Approximately 2 cm^2 of skin area was scratched until it became visibly reddened and glistening without any bleeding. For bacterial infection, a 10 μL droplet containing 10^7 CFU/mL of S. aureus ATCC 29213 was applied to the reddened area of skin. To confirm the infection, post 4 h, untreated mice were sacrificed, skin homogenized, and various dilutions of the treatment groups (6 mice per group) were plated on TSA plates. […] Henceforth, the drug regimen was comprised of twice daily application (in the morning and the evening, with an 8 h interval) for 4 days. Control mice were regularly treated with 25–30 mg each of 2% fusidic acid (LEO Pharma, Ballerup, Denmark), 2% infuzide, and base (vehicle). […]

`CN[C@H](CC(C)C)C(=O)N[C@H]1C(=O)N[C@@H](CC(N)=O)C(=O)N[C@H]2C(=O)N[C@H]3C(=O)N[C@H](C(=O)N[C@H](C(=O)O)c4cc(O)cc(O)c4-c4cc3ccc4O)[C@H](O)c3ccc(c(Cl)c3)Oc3cc2cc(c3O[C@@H]2O[C@H](CO)[C@@H](O)[C@H](O)[C@H]2O[C@H]2C[C@](C)(N)[C@H](O)[C@H](C)O2)Oc2ccc(cc2Cl)[C@H]1O` [Van, Vancomycin] was tested, and the MIC (MSSA ATCC 29213) was 1 µg/mL and 0.67 µM, the MIC (MRSA NRS 191) was 1.34 µM (≈ 1.94 µg/mL) and the MIC (MRSA NRS 193) was 1.34 µM (≈ 1.94 µg/mL). For the same compound, the MIC (MRSA NRS 194) was 0.67 µM (≈ 0.971 µg/mL), the MIC [1] was 1 µg/mL (≈ 0.69 µM) and the MIC (MRSA NRS 198) was 1.34 µM (≈ 1.94 µg/mL). The MIC (MRSA NRS 192) was 0.67 to 1.34 µM (≈ 0.971 to 1.94 µg/mL), the MIC [2] was 0.86 µM (≈ 1.25 µg/mL) and the MIC (VRSA VRS 4) was greater than 43.1 µM. For the same compound, the PAE (S. aureus ATCC 29213 [3]; 1x MIC) was ~ 2.5 h, the “Time for 1 log10 increase in bacterial cfu count” value (from here on “Time for 1 log10 increase”) (S. aureus ATCC 29213 [3]; 1x MIC) was ~ 5 h and the PAE (S. aureus ATCC 29213 [3]; 5x MIC) was ~ 2.5 h. For the same compound, the “Time for 1 log10 increase” value (S. aureus ATCC 29213 [3]; 5x MIC) was ~ 5 h, the “Time for 1 log10 increase” value (S. aureus ATCC 29213 [3]; 10x MIC) was ~ 5 h and the PAE (S. aureus ATCC 29213 [3]; 10x MIC, listed as Vancomycin) was ~ 2.5 h. The PAE (S. aureus ATCC 29213 [3]; 10x MIC, listed as vancomycin) was 2.5 h, the MIC (MRSA NRS 100) was 1.34 µM (≈ 1.94 µg/mL) and the MIC (MRSA NRS 119) was 1.34 µM (≈ 1.94 µg/mL). For the same compound, the MIC [4] was 0.86 µM (≈ 1.25 µg/mL), the MIC (Bacillus subtilis MW168) was less than 0.22 µM and the MIC (VRSA VRS 1) was greater than 43.1 µM. The MIC (S. aureus ATCC 29213 [5]; Staphylococcus aureus, ATCC29213) was 1 µg/mL, the “FIC B” value (S. aureus ATCC 29213 [5]; antibiotic in combination with Pt1 / alone) was 1 and the “FIC (FICA+FICB)” value (S. aureus ATCC 29213 [5]; combination with Pt1) was 2. The Interference (S. aureus ATCC 29213 [5]; combination with Pt1, synergistic ≤0.5, indifferent >0.5 to 4, antagonistic >4) was “no interaction”, the MIC (MRSA NRS 129) was 0.67 µM (≈ 0.971 µg/mL) and the MIC (VRSA VRS 12) was greater than 43.1 µM. The MIC (MRSA NRS 186) was 0.67 µM (≈ 0.971 µg/mL).
`CC(=O)O[C@H]1C[C@@]2(C)[C@@H](C[C@@H](O)[C@H]3[C@@]4(C)CC[C@@H](O)[C@@H](C)[C@@H]4CC[C@@]32C)/C1=C(\CCC=C(C)C)C(=O)O` [fusidic acid] was tested, and the “reduction in bacterial load compared to vehicle-treated group” value (S. aureus ATCC 29213 [6]) was ~ 2.9 log10 CFU/g.

Source: paper PMC13183915, “A platinum butterfly effect: small changes turn an anticancer drug into a non-toxic metalloantibiotic with in vivo efficacy” (npj Antimicrobials and Resistance, 2026)
